Test [1] deals with Cyclin-dependent kinase 2/cyclin E1 (Homo sapiens) (UniProt P24864+P24941). As to the kind of experiment: Inhibition of CDK2/Cyclin E1 (unknown origin) at 10 uM. Type of test: protein-complex assay.
The target in test [2] is CDK9/cyclin T1 (Homo sapiens) (UniProt O60563+P50750). Description: Inhibition of CDK9/Cyclin T1 (unknown origin) at 10 uM. Type of test: protein-complex assay.
In test [3] the test system is HepG2. Description: Growth inhibition of human HepG2 cells at 10 uM incubated for 3 days by MTT assay. (Formazan colour is commonly taken as a measure of viable cells.)
The test system of test [4] is A2780. As to the kind of experiment: Growth inhibition of human A2780 cells at 10 uM incubated for 3 days by MTT assay.
For test [5], the system named is HCT-116. As to the kind of experiment: Growth inhibition of human HCT116 cells at 10 uM incubated for 3 days by MTT assay.
Test [6] relates to BGC-823. Description: Growth inhibition of human BGC823 cells at 10 uM incubated for 3 days by MTT assay.
In test [7] the test system is NCI-H1650. As to the kind of experiment: Growth inhibition of human NCI-H1650 cells at 10 uM incubated for 3 days by MTT assay.
The subject of test [8] is HepG2. Description: Growth inhibition of human HepG2 cells incubated for 3 days by MTT assay. The settings on record: HepG2, 72 h.
Test [9] concerns A2780. Description: Growth inhibition of human A2780 cells incubated for 3 days by MTT assay. The settings on record: A2780, 72 h.
Test [10] concerns HCT-116. Description: Growth inhibition of human HCT116 cells incubated for 3 days by MTT assay. The settings on record: HCT-116, 72 h.
The test system of test [11] is BGC-823. As to the kind of experiment: Growth inhibition of human BGC823 cells incubated for 3 days by MTT assay. To be noted: BGC-823, 72 h.
The subject of test [12] is NCI-H1650. As to the kind of experiment: Growth inhibition of human NCI-H1650 cells incubated for 3 days by MTT assay. To be noted: NCI-H1650, 72 h.

By IC50 is commonly meant the point on the concentration scale where inhibition reaches its midpoint. A higher IC50 goes with weaker potency in that assay.

The structures appear in SMILES notation. Calls of active or inactive are those of the source. The calls are words filed in the database; no cut-off is given here.

Turning to `O=C1Nc2ccc(F)cc2/C1=C\C(=O)c1ccco1`, the inhibition entry in test [1] and in test [2] was “inactive” throughout. For the same compound, the “growth inhibition (GI)” value in the test with HepG2 [3], in the test with A2780 [4], in the test with HCT-116 [5], in the test on BGC-823 [6] and with NCI-H1650 [7] was “inactive” in each case.

With `O=C1Nc2ccc(F)cc2/C1=C\C(=O)c1nccs1`, the inhibition entry in test [1] and in test [2] was “inactive” each time. For the same compound, the “growth inhibition (GI)” value with HepG2 [3], with A2780 [4], in the test on HCT-116 [5], in the test with BGC-823 [6] and with NCI-H1650 [7] was “inactive” throughout.

In the case of `O=C1Nc2ccc(F)cc2/C1=C\C(=O)c1sccc1Cl`, the inhibition entry in test [1] and in test [2] was “inactive” throughout. For the same compound, the IC50 in the test with HepG2 [8] was determined as 3100 nM; in the test on A2780 [9], 2140 nM; in the test with HCT-116 [10], 2450 nM; in the test on BGC-823 [11], 2660 nM; in the test with NCI-H1650 [12], 3560 nM.

Consider `O=C1Nc2ccc(F)cc2/C1=C\C(=O)c1ccccc1O`, for which the inhibition result in [1] and in test [2] was “inactive” in each case. For the same compound, the “growth inhibition (GI)” value in the test on HepG2 [3], with A2780 [4], in the test with HCT-116 [5], in the test on BGC-823 [6] and with NCI-H1650 [7] was “inactive” throughout.

As for `CN1CCN(c2cccc(N/C=C3\C(=O)Nc4ccc(NC(=O)c5ccc[nH]5)cc43)c2)CC1`, the inhibition result in test [1] and in [2] was “inactive” in each case. Further, the figures for the IC50 with HepG2 [8], with A2780 [9] and in the test with NCI-H1650 [12] were 5370 nM, 4460 nM and 7560 nM, respectively. For the same compound, the “growth inhibition (GI)” value in the test on HCT-116 [5] and with BGC-823 [6] was “inactive” each time.

With `CN1CCC(C(=O)Nc2ccc3c(c2)/C(=C/Nc2cccc(N4CCN(C)CC4)c2)C(=O)N3)CC1`, the inhibition result in test [1] and in [2] was “inactive” throughout. Moreover, in the test with HCT-116 [10], the IC50 stood at 4670 nM. In addition, the “growth inhibition (GI)” value in the test with HepG2 [3], in the test on A2780 [4], in the test on BGC-823 [6] and with NCI-H1650 [7] was “inactive” in each case.

Turning to `CC(C)CC(=O)Nc1ccc2c(c1)/C(=C/Nc1cccc(N3CCN(C)CC3)c1)C(=O)N2`, the inhibition entry in test [1] and in test [2] was “inactive” throughout. In addition, the IC50 came to 5070 nM with HepG2 [8]; 3370 nM with A2780 [9]; 9410 nM with HCT-116 [10]; 6080 nM in the test with BGC-823 [11]; 5870 nM in the test on NCI-H1650 [12].

As for `O=C1Nc2ccc(F)cc2/C1=C\C(=O)c1c[nH]c2ccccc12`, the inhibition result in [1] and in test [2] was “inactive” each time. Also, the half-inhibitory concentration (IC50) stood at 1860 nM with HepG2 [8]; 2440 nM in the test on A2780 [9]; 3010 nM in the test with HCT-116 [10]; 8990 nM in the test with BGC-823 [11]; 6580 nM in the test on NCI-H1650 [12].

Consider `O=C1Nc2ccccc2/C1=C\C(=O)c1c[nH]c2ccccc12`, for which the inhibition entry in test [1] and in test [2] was “inactive” throughout. Further, the IC50 in the test on HepG2 [8] worked out at 2110 nM; in the test on A2780 [9] it was 2080 nM; in the test on HCT-116 [10], 860 nM; with BGC-823 [11] it was 9440 nM; in the test with NCI-H1650 [12], 1270 nM.

With `O=C1Nc2ccc([N+](=O)[O-])cc2/C1=C\C(=O)c1ccc(C2CCCCC2)cc1`, the inhibition result in [1] and in [2] was “inactive” in each case. The IC50 with HepG2 [8] worked out at 3990 nM; in the test on A2780 [9], 2090 nM; in the test on HCT-116 [10] it was 2320 nM; with BGC-823 [11], 5900 nM; in the test on NCI-H1650 [12], 3860 nM.

For the compound `O=C1Nc2ccc(F)cc2/C1=C\C(=O)c1cnccn1`, the inhibition entry in [1] and in test [2] was “inactive” in each case. Besides, the “growth inhibition (GI)” value with HepG2 [3], in the test on A2780 [4], with HCT-116 [5], in the test on BGC-823 [6] and in the test on NCI-H1650 [7] was “inactive” in each case.

In the case of `CC(=O)O[C@H]1C(=O)[C@@]2(C)[C@H]([C@H](OC(=O)c3ccccc3)[C@]3(O)C[C@H](OC(=O)[C@H](O)[C@@H](NC(=O)c4ccccc4)c4ccccc4)C(C)=C1C3(C)C)[C@]1(OC(C)=O)CO[C@@H]1C[C@@H]2O` [PACLITAXEL], the IC50 in the test on HepG2 [8] stood at 20 nM; in the test on A2780 [9], 30 nM; in the test with HCT-116 [10], 30 nM; in the test on BGC-823 [11], 1 nM; with NCI-H1650 [12], 70 nM.

Turning to `CN1CCN(c2cccc(N/C=C3\C(=O)Nc4ccc(NC(=O)c5c(Cl)cccc5Cl)cc43)c2)CC1`, the inhibition entry in test [1] and in test [2] was “inactive” in each case. Besides, the IC50 with HepG2 [8] amounted to 2370 nM; in the test with A2780 [9], 2140 nM; in the test on HCT-116 [10], 2280 nM; in the test on BGC-823 [11], 2240 nM; in the test on NCI-H1650 [12], 2170 nM.

Consider `COc1ccc(C(=O)Nc2ccc3c(c2)/C(=C/Nc2cccc(N4CCN(C)CC4)c2)C(=O)N3)cc1`, for which the inhibition entry in test [1] and in [2] was “inactive” throughout. The IC50 was 1780 nM in the test on HepG2 [8]; 2050 nM in the test with A2780 [9]; 2010 nM with HCT-116 [10]; 3170 nM in the test on BGC-823 [11]; 1870 nM with NCI-H1650 [12].

Take `O=C1Nc2ccc(F)cc2/C1=C\C(=O)c1ccc(C2CCCCC2)cc1`: the inhibition entry in [1] and in test [2] was “inactive” throughout. Besides, the IC50 in the test on HepG2 [8] worked out at 2840 nM; in the test with A2780 [9], 2310 nM; in the test on HCT-116 [10], 2520 nM; in the test on BGC-823 [11], 4450 nM; with NCI-H1650 [12] it was 2730 nM.

As for `O=C1Nc2ccc(F)cc2/C1=C\C(=O)c1ccc(-n2ccnc2)cc1`, the inhibition result in test [1] and in [2] was “inactive” in each case. Further, the “growth inhibition (GI)” value in the test on HepG2 [3], with A2780 [4], in the test with HCT-116 [5], in the test on BGC-823 [6] and in the test with NCI-H1650 [7] was “inactive” throughout.

As for `CN1CCN(c2cccc(N/C=C3\C(=O)Nc4ccc(NC(=O)c5cccc(F)c5)cc43)c2)CC1`, the inhibition result in test [1] and in test [2] was “inactive” throughout. In addition, the IC50 with HepG2 [8] worked out at 6720 nM; in the test with A2780 [9], 2910 nM; in the test on HCT-116 [10], 2740 nM; in the test with BGC-823 [11], 8500 nM; in the test with NCI-H1650 [12], 4280 nM.

For `O=C1Nc2ccc(F)cc2/C1=C\C(=O)c1cc(Cl)sc1Cl`, the inhibition entry in test [1] and in [2] was “inactive” each time. Also, the “growth inhibition (GI)” value with HepG2 [3], in the test on A2780 [4], in the test with HCT-116 [5], in the test with BGC-823 [6] and with NCI-H1650 [7] was “inactive” throughout.

In the case of `O=C1Nc2ccc(F)cc2/C1=C\C(=O)c1ccc(O)cc1F`, the inhibition result in [1] and in [2] was “inactive” throughout. In addition, the IC50 in the test with HepG2 [8] came to 3440 nM; with A2780 [9], 1580 nM; in the test on HCT-116 [10], 1070 nM; with BGC-823 [11] it was 6120 nM; with NCI-H1650 [12], 3460 nM.

`O=C1Nc2ccc(F)cc2/C1=C\C(=O)c1cccs1`: the inhibition entry in test [1] and in test [2] was “inactive” each time. Moreover, the IC50 with HepG2 [8] was 8780 nM; in the test on A2780 [9], 2750 nM; in the test with HCT-116 [10] it was 1840 nM; in the test on BGC-823 [11], 7750 nM; in the test on NCI-H1650 [12], 3220 nM.

In the case of `O=C1Nc2ccc(F)cc2/C1=C\C(=O)c1cnc2ccc(Cl)nn12`, the inhibition entry in [1] and in test [2] was “inactive” in each case. Besides, the IC50 in the test with HepG2 [8] turned out to be 3090 nM; in the test with A2780 [9], 2370 nM; in the test on HCT-116 [10], 1410 nM; in the test with BGC-823 [11], 8020 nM; with NCI-H1650 [12], 2730 nM.

For the compound `O=C1Nc2ccc(F)cc2/C1=C\C(=O)c1ccc[nH]1`, the inhibition result in test [1] and in [2] was “inactive” each time. The half-maximal inhibitory concentration (IC50) was 3120 nM in the test with HepG2 [8]; 2170 nM with A2780 [9]; 1380 nM in the test on HCT-116 [10]; 6420 nM in the test with BGC-823 [11]; 2840 nM in the test with NCI-H1650 [12].

(Values after ChEMBL document CHEMBL4052679, “Design, synthesis and biological evaluation of novel indolin-2-ones as potent anticancer compounds” (Bioorg Med Chem Lett, 2017).)
